According to patent publication US9745310B2 (SK BIOPHARMACEUTICALS CO., LTD., priority 2015, dated 2017):

These compounds were tested against human mGluR5 receptor (Homo sapiens (Human), UniProt P41594) (assay: Calcium influx assay based on fluorescence (mGluR5 PAM activity)). Details: human mGluR5 receptor-overexpressed HEK293 cell line; L-glutamate EC20; Fluo-4, FLIPR.
Protocol: Efficacy as a positive allosteric modulator (PAM) of mGluR5 of the compounds of the Examples was tested as follows:
Calcium Influx Assay Based on Fluorescence
Ca^2+ (calcium) influx assay is an experiment for measuring the activity of a positive allosteric modulator of mGluR5 receptor in which human mGluR5 receptor-overexpressed HEK293 cell line is used. The day before the experiment, cells were prepared in a cell culture medium (DMEM, 5% FBS) with the density of 80,000/well, and 100 μl of cells were dispensed into each well of a poly-D-lysine-coated 96-well plate. Cells were incubated in a 5% CO2, 37° C. incubator. The next day, the cell culture medium was removed from the plate, and 100 μl of 1× Fluo-4 calcium indicator diluted with a buffer (1× Hank's balanced salt solution, 20 mM HEPES, 2.5 mM probenecid) were added to each well and incubated at 37° C. for 1 hour. The compound stock solutions were prepared in 100% DMSO, and the compounds were serially diluted with a ¼ dilution to 6 or 7 concentrations (final concentration was 10 μM to 10 nM). The diluted compound solutions were added to the plate with 0.1 to 0.2% of final DMSO concentration. 1 hour after the addition of Fluo-4 calcium indicator, L-glutamate (EC20 concentration) and the test compound solutions were added to the plate, and Ca^2+ reaction was then measured by FLIPR at room temperature. The activity of the compounds was standardized on the basis of the results of maximum value-minimum value of fluorescent reaction, and the activity value was calculated on the basis that no activity on glutamate EC20 is 0% and the reaction to glutamate maximum value is 100%.

Chain of human mGluR5 receptor (P41594 21-1212): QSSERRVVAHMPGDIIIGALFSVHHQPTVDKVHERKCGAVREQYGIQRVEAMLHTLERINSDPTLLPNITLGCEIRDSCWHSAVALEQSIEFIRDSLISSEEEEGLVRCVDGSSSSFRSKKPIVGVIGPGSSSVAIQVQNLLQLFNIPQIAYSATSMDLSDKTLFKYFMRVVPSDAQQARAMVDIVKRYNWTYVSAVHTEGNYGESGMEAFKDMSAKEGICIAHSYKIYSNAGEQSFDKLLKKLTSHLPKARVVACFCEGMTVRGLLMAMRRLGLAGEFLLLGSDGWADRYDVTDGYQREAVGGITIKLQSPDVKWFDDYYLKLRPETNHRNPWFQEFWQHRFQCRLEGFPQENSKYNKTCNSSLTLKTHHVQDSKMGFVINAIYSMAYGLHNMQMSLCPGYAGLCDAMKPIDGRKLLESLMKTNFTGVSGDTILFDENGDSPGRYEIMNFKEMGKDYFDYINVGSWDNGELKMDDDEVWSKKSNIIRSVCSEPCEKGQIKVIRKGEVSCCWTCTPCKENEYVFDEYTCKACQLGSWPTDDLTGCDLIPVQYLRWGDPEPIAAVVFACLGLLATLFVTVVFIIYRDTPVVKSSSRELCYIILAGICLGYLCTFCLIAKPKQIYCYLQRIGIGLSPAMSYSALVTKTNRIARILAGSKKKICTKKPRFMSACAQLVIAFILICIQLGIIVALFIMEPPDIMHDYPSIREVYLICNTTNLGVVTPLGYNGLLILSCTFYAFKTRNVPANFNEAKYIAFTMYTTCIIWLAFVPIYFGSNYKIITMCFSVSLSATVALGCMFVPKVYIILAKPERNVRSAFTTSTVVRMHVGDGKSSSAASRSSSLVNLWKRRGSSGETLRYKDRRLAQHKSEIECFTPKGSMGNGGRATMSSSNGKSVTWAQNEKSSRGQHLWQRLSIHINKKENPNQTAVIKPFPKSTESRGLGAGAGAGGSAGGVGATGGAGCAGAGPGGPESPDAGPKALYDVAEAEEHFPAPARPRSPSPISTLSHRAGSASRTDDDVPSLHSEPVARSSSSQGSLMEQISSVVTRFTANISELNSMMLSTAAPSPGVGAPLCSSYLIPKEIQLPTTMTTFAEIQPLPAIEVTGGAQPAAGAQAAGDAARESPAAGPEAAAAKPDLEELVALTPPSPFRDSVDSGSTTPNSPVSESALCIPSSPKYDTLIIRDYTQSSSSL

EC50	Compound
0.1 to 0.5 µM	Nc1cc(Cl)ccc1-c1cnc2nc(COc3ccc(F)cc3)cn2c1 [Example 75, 5-chloro-2-[2-[(4-fluorophenoxy)methyl]imidazo[1,2-a]pyrimidin-6-yl]aniline]
0.5 to 1 µM	COc1ccc(-c2cnc3nc(COc4ccccc4)cn3c2)cn1 [Example 30, 6-(6-methoxypyridin-3-yl)-2-phenoxymethylimidazo[1,2-a]pyrimidine]
0.1 to 0.5 µM	CC(=O)OCc1cc(F)ccc1-c1cnc2nc(COc3ccccn3)cn2c1 [Example 196, [5-fluoro-2-[2-(2-pyridyloxymethyl)imidazo[1,2-a]pyrimidin-6-yl]phenyl]methyl acetate]
0.5 to 1 µM	Fc1ccc(-c2cnc3nc(COc4ccccc4)cn3c2)cc1F [Example 19, 6-(3,4-difluorophenyl)-2-phenoxymethylimidazo[1,2-a]pyrimidine]
0.1 to 0.5 µM	Fc1ccc(-c2cnc3nc(COc4cccc(F)c4)cn3c2)nc1 [Example 93, 2-[(3-fluorophenoxy)methyl]-6-(5-fluoro-2-pyridyl)imidazo[1,2-a]pyrimidine]
0.5 to 1 µM	Nc1cc(-c2cnc3nc(COc4ccc(F)cn4)cn3c2)ccc1F [Example 133, 2-fluoro-5-[2-[(5-fluoro-2-pyridyl)oxymethyl]imidazo[1,2-a]pyrimidin-6-yl]aniline]
0.1 to 0.5 µM	Oc1cc(F)ccc1-c1cnc2nc(COc3cncc(F)c3)cn2c1 [Example 156, 6-(4-fluoro-2-hydroxyphenyl)-2-(5-fluoropyridin-3-yloxymethyl)imidazo[1,2-a]pyrimidine]
0.1 to 0.5 µM	OCc1cc(C(F)(F)F)ccc1-c1cnc2nc(COc3ccccn3)cn2c1 [Example 142, [2-[2-(2-pyridyloxymethyl)imidazo[1,2-a]pyrimidin-6-yl]-5-(trifluoromethyl)phenyl]methanol]
0.5 to 1 µM	COc1cc(-c2cnc3nc(COc4ccccc4)cn3c2)ccc1F [Example 21, 6-(4-fluoro-3-methoxyphenyl)-2-phenoxymethylimidazo[1,2-a]pyrimidine]
0.1 to 0.5 µM	CCc1ccccc1-c1cnc2nc(COc3ccccn3)cn2c1 [Example 115, 6-(2-ethylphenyl)-2-(2-pyridyloxymethyl)imidazo[1,2-a]pyrimidine]
0.1 to 0.5 µM	Fc1ccc(OCc2cn3cc(-c4ccc(F)nc4)cnc3n2)cc1 [Example 51, 2-[(4-fluorophenoxy)methyl]-6-(6-fluoro-3-pyridyl)imidazo[1,2-a]pyrimidine]
0.1 to 0.5 µM	Cc1ccccc1-c1cnc2nc(COc3ccnc(F)c3)cn2n1 [Example 185, 2-(2-methylphenyl)-6-((2-fluoropyridin-4-yloxy)methyl)imidazo[1,2-b][1,2,4]triazine]
0.5 to 1 µM	Fc1ccc(-c2cnc3nc(COc4cccnc4)cn3c2)c(F)c1 [Example 148, 6-(2,4-difluorophenyl)-2-(pyridin-3-yloxymethyl)imidazo[1,2-a]pyrimidine]
0.1 to 0.5 µM	Nc1cc(F)ccc1-c1cnc2nc(COc3ccc(F)cc3)cn2c1 [Example 77, 5-fluoro-2-[2-[(4-fluorophenoxy)methyl]imidazo[1,2-a]pyrimidin-6-yl]aniline]
0.1 to 0.5 µM	Nc1cc(F)ccc1-c1cnc2nc(COc3ccnc(F)c3)cn2c1 [Example 176, 5-fluoro-2-[2-[(2-fluoro-4-pyridyl)oxymethyl]imidazo[1,2-a]pyrimidin-6-yl]aniline]
0.5 to 1 µM	Nc1cc(F)c(F)cc1-c1cnc2nc(COc3ccc(F)cc3)cn2c1 [Example 73, 4,5-difluoro-2-[2-[(4-fluorophenoxy)methyl]imidazo[1,2-a]pyrimidin-6-yl]aniline]
0.1 to 0.5 µM	Fc1ccnc(OCc2cn3cc(-c4ccc(F)cc4F)cnc3n2)c1 [Example 120, 6-(2,4-difluorophenyl)-2-[(4-fluoro-2-pyridyl)oxymethyl)imidazo[1,2-a]pyrimidine]
0.5 to 1 µM	Fc1ccc(-c2cnc3nc(COc4ccccc4)cn3c2)cc1Cl [Example 13, 6-(3-chloro-4-fluorophenyl)-2-phenoxymethylimidazo[1,2-a]pyrimidine]
0.1 to 0.5 µM	COc1cc(F)ccc1-c1cnc2nc(COc3ccccc3)cn2c1 [Example 20, 6-(2-methoxy-4-fluorophenyl)-2-phenoxymethylimidazo[1,2-a]pyrimidine]
0.1 to 0.5 µM	Fc1ccc(-c2cnc3nc(COc4cncc(F)c4)cn3c2)cc1 [Example 171, 6-(4-fluorophenyl)-2-[(5-fluoro-3-pyridyl)oxymethyl)imidazo[1,2-a]pyrimidine]
0.5 to 1 µM	Nc1cc(-c2cnc3nc(COc4ccccc4)cn3c2)ccc1F [Example 12, 6-(3-amino-4-fluorophenyl)-2-phenoxymethylimidazo[1,2-a]pyrimidine]

EC50	Compound
0.1 to 0.5 µM	Fc1cccc(OCc2cn3cc(-c4ccc(F)cc4F)cnc3n2)c1 [Example 41, 6-(2,4-difluorophenyl)-2-(3-fluorophenoxymethyl)imidazo[1,2-a]pyrimidine]
0.1 to 0.5 µM	Cc1cc(F)ccc1-c1cnc2nc(COc3ccc(F)nc3)cn2c1 [Example 158, 6-(4-fluoro-2-methylphenyl)-2-(6-fluoropyridin-3-yloxymethyl)imidazo[1,2-a]pyrimidine]
0.1 to 0.5 µM	COc1cc(C#N)ccc1-c1cnc2nc(COc3ccc(F)cc3)cn2c1 [Example 68, 4-[2-[(4-fluorophenoxy)methyl]imidazo[1,2-a]pyrimidin-6-yl]-3-methoxy-benzonitrile]
0.1 to 0.5 µM	Fc1ccc(-c2cnc3nc(COc4cccc(F)c4)cn3c2)cc1 [Example 54, 2-[(3-fluorophenoxy)methyl]-6-(4-fluorophenyl)imidazo[1,2-a]pyrimidine]
0.1 to 0.5 µM	COc1cc(F)ccc1-c1cnc2nc(COc3cc(F)ccn3)cn2c1 [Example 118, 6-(4-fluoro-2-methoxy-phenyl)-2-[(4-fluoro-2-pyridyl)oxymethyl)imidazo[1,2-a]pyrimidine]
0.1 to 0.5 µM	Nc1ccccc1-c1cnc2nc(COc3cccc(F)c3)cn2c1 [Example 44, 6-(2-aminophenyl)-2-(3-fluorophenoxymethyl)imidazo[1,2-a]pyrimidine]
0.1 to 0.5 µM	COc1cc(F)ccc1-c1cnc2nc(COc3ccccn3)cn2c1 [Example 104, 6-(4-fluoro-2-methoxyphenyl)-2-(pyridin-2-yloxymethyl)imidazo[1,2-a]pyrimidine]
0.1 to 0.5 µM	Fc1cccc(OCc2cn3cc(-c4ccc(F)cc4C(F)(F)F)cnc3n2)c1 [Example 94, 2-[(3-fluorophenoxy)methyl]-6-[4-fluoro-2-(trifluoromethyl)phenyl]imidazo[1,2-a]pyrimidine]
0.1 to 0.5 µM	Fc1ccc(-c2cnc3nc(COc4ccncc4)cn3c2)c(F)c1 [Example 152, 6-(2,4-difluorophenyl)-2-(pyridin-4-yloxymethyl)imidazo[1,2-a]pyrimidine]
0.1 to 0.5 µM	Cc1cc(F)ccc1-c1cnc2nc(COc3ccc(F)cc3)cn2c1 [Example 48, 6-(4-fluoro-2-methylphenyl)-2-(4-fluorophenoxymethyl)imidazo[1,2-a]pyrimidine]
0.1 to 0.5 µM	Fc1ccc(-c2cnc3nc(COc4ccccc4)cn3c2)c2c1OCO2 [Example 24, 6-(7-fluorobenzo[1,3]dioxol-4-yl)-2-phenoxymethylimidazo[1,2-a]pyrimidine]
0.5 to 1 µM	Nc1cc(F)ccc1-c1cnc2nc(COc3cncc(F)c3)cn2c1 [Example 175, 5-fluoro-2-[2-[(5-fluoro-3-pyridyl)oxymethyl]imidazo[1,2-a]pyrimidin-6-yl]aniline]
0.5 to 1 µM	Cc1cc(F)ccc1-c1cnc2nc(COc3cccnc3F)cn2c1 [Example 159, 6-(4-fluoro-2-methylphenyl)-2-(2-fluoropyridin-3-yloxymethyl)imidazo[1,2-a]pyrimidine]
0.1 to 0.5 µM	COc1cc(F)ccc1-c1cnc2nc(COc3cncc(F)c3)cn2c1 [Example 155, 6-(4-fluoro-2-methoxyphenyl)-2-(5-fluoropyridin-3-yloxymethyl)imidazo[1,2-a]pyrimidine]
0.5 to 1 µM	Fc1ccc(OCc2cn3cc(-c4ccnc(F)c4)cnc3n2)cc1 [Example 62, 2-[(4-fluorophenoxy)methyl]-6-(2-fluoro-4-pyridyl)imidazo[1,2-a]pyrimidine]
0.1 to 0.5 µM	Cc1ccc(-c2cnc3nc(COc4ccc(F)cc4)cn3c2)c(N)c1 [Example 74, 2-[2-[(4-fluorophenoxy)methyl]imidazo[1,2-a]pyrimidin-6-yl]-5-methyl-aniline]
0.5 to 1 µM	Clc1ccc(-c2cnc3nc(COc4ccccc4)cn3c2)cc1 [Example 37, 6-(4-chlorophenyl)-2-phenoxymethylimidazo[1,2-a]pyrimidine]
0.1 to 0.5 µM	Cc1c(F)cccc1-c1cnc2nc(COc3ccc(F)cn3)cn2c1 [Example 124, 6-(3-fluoro-2-methyl-phenyl)-2-[(5-fluoro-2-pyridyl)oxymethyl)imidazo[1,2-a]pyrimidine]
0.1 to 0.5 µM	Fc1cccc(OCc2cn3cc(-c4ccc(F)nc4)cnc3n2)c1 [Example 81, 2-[(3-fluorophenoxy)methyl]-6-(6-fluoro-3-pyridyl)imidazo[1,2-a]pyrimidine]
0.1 to 0.5 µM	Cc1cc(F)ncc1-c1cnc2nc(COc3ccccc3)cn2c1 [Example 38, 6-(6-fluoro-4-methyl-3-pyridyl)-2-phenoxymethylimidazo[1,2-a]pyrimidine]
